Laboratory results published in paper PMC2546444, “Anti-Plasmodium Activity of Angiotensin II and Related Synthetic Peptides” (PLoS ONE, 2008).
Positions of bridges follow the written chain, without caps; N, C: chain ends. Residues, ends and D or L forms follow the SMILES beside them. No end group written: not given here.

Legend:
[1] = tested on: fresh human erythrocytes; assay: Hemolytic activity; assay type: cell-based; conditions: peptide 0.19 to 100 μM; 0.4% human erythrocytes in PBS pH 7.4, 1 h at 37°C, read at 405 nm; triplicate
Experimental: Hemolytic activity was evaluated on fresh human erythrocytes washed three times with phosphate-buffered saline (PBS: 10 mM Na2HPO4, 1.8 mM K2-HPO4, pH 7.4, containing 140 mM NaCl and 2.7 mM KCl) ). Serial dilutions of the peptides with concentrations varying between 0.19–100 μM were incubated in Eppendorf tubes with a suspension of 0.4% erythrocytes in PBS. After 1 h at 37°C, the test tubes were centrifuged at 300g for 5 min at 5°C. Fifty microliter aliquots of the supernatants were transferred to 96-well plates and hemolysis was monitored at 405 nm using a microtiter plate reader. Negative and positive controls were prepared in PBS and in PBS supplemented with 0.1% SDS, respectively. Ang ll of the experiments was performed in triplicate.

[2] = 25% pooled non-heat inactivated human serum in PBS, 37°C; 20 μl of 10 mg/ml stock in 1 ml; sampling 0-120 min; LC/ESI-MS peak area; triplicates; data not shown
[3] = tested on: Ae.aegypti mosquitoes; assay: Survival of mosquitoes injected with ang II; assay type: in vivo, Aedes aegypti; conditions: 0.5 μl ang II at 10-200 μM intrathoracically; chi-square test p>0.5; mean of three independent experiments
Experimental: Supplementary file pone.0003296.s001.tif: Figure S1 Survival of mosquitoes injected with different ang II concentrations. Ae.aegypti mosquitoes (10 females) were injected intrathoracically (0.5 μl) of ang II at 10 μM, 20 μM, 50 μM, 60 μM, 100 μM and 200 μM. After 24 hour the survival of mosquitoes was scored. […] Results are the mean of three independent experiments (20 mosquitoes/group), and bars represent standard errors of the mean. (0.18 MB TIF) Click here for additional data file.

Row | Compound | time to degradation in serum | Hemolytic Activity [1] | time within which the peptide was degraded in serum [2] | effect on mosquito survival after 24 hour [3]
1 | CC[C@H](C)[C@H](NC(=O)[C@H](Cc1ccc(O)cc1)NC(=O)[C@@H]1CCCCNC(=O)C[C@H](NC(=O)[C@H](CCCNC(=N)N)NC(=O)[C@@H](N)CC(=O)O)C(=O)N[C@@H](C(C)C)C(=O)N1)C(=O)N[C@@H](Cc1c[nH]cn1)C(=O)N1CCC[C@H]1C(=O)N[C@@H](Cc1ccccc1)C(=O)O [VC5, Cyclo(2a-3a)[endo-(Asp^2a), endo-(Lys^3a)]-All] (H-DRDVKYIHPF-OH; lactam 3-5) | < 30 min | neg |  | 
2 | CC[C@H](C)[C@H](NC(=O)[C@H](Cc1ccc(O)cc1)NC(=O)[C@@H](NC(=O)[C@H](CCCNC(=N)N)NC(=O)[C@@H](N)CC(=O)O)C(C)C)C(=O)N[C@@H](Cc1cnc[nH]1)C(=O)N1CCC[C@H]1C(=O)N[C@@H](Cc1ccccc1)C(=O)O [ang II, Angiotensin II] |  | neg | ≤ 30 min | no significant effects
3 | DDRKVYIHPF [VC4, [endo-(Asp^1a), endo-(Lys^2a)]-All] | < 30 min | neg |  | 
4 | CC[C@H](C)[C@H](NC(=O)[C@H](Cc1ccc(O)cc1)NC(=O)[C@@H](NC(=O)[C@@H]1CCCCNC(=O)C[C@H](NC(=O)[C@@H](N)CC(=O)O)C(=O)N[C@@H](CCCNC(=N)N)C(=O)N1)C(C)C)C(=O)N[C@@H](Cc1c[nH]cn1)C(=O)N1CCC[C@H]1C(=O)N[C@@H](Cc1ccccc1)C(=O)O [VC3, Cyclo(1a-2a)[endo-(Asp^1a), endo-(Lys^2a)]-All] (H-DDRKVYIHPF-OH; lactam 2-4) | < 30 min | neg |  | 
5 | DDKRVYIHPF [VC2, [Asp^0, endo-(Lys^1a)]-All] | < 30 min | neg |  | 
6 | CC[C@H](C)[C@H](NC(=O)[C@H](Cc1ccc(O)cc1)NC(=O)[C@@H](NC(=O)[C@H](CCCNC(=N)N)NC(=O)[C@@H]1CCCCNC(=O)C[C@H](N)C(=O)N[C@@H](CC(=O)O)C(=O)N1)C(C)C)C(=O)N[C@@H](Cc1c[nH]cn1)C(=O)N1CCC[C@H]1C(=O)N[C@@H](Cc1ccccc1)C(=O)O [VC1, Cyclo(0-1a)[Asp^0, endo-(Lys^1a)]-All] (H-DDKRVYIHPF-OH; lactam 1-3) | < 30 min | neg |  | 
7 | DRDVKYIHPF [VC6, [endo-(Asp^2a), endo-(Lys^3a)]-All] | < 30 min | neg |  | 
